Data set [1] deals with multiparous gravid ewes. As to the kind of experiment: hGRF (1-29) on completion of two-thirds and/or at end of gestation in ewes: milk production. Format: in vivo. As for the experimental part: 48 multiparous gravid ewes were distributed in four batches of 12 ewes each, account being taken of the earlier milk productions and of the anticipated parity (OCS--Ovine Chorionic Somatotropin--assay). The first batch forms the control batch, the ewes receiving no treatment. The other three batches receive 1.5 mg of hGRF (1-29) subcutaneously twice daily; from day 105 to day 115 of gestation for the second batch, which will be designated hereinafter as batch "GRF1"; from day 137 of gestation to littering for the third batch, which will be designated hereinafter as batch "GRF2"; and from day 105 to day 115 of gestation and from day 137 of gestation to littering for the fourth batch, which will be designated hereinafter as batch "GRF1+2". As in the above study, the administration of hGRF (1-29) is stopped as soon as parturition takes place, and lambing is induced by the administration of dexamethasone on day 145 of gestation, under the conditions described above. After parturition, the milk production of the ewes was measured twice daily, and the growth of the lambs, which received an artificial milk-feed supplied "ad libitum", was followed, the lambs receiving no growth adjuvant treatment. After a variance analysis, taking the earlier production as covariable, and after correction taking into account the parity (number of lambs per pregnancy) during the lactation in progress and during the reference lactation, the results for the milk production were compared between the control batches and batches "GRF1" and "GRF2". From the results obtained over five weeks of lactation, the curves of FIGS. 4 and 5 were plotted, the source data being reported in Table 2 below.

Data set [2] has as its system gravid ewes. As to the kind of experiment: OGH (growth hormone) assay in gravid ewes given hGRF (1-29) at the end of gestation. Format: in vivo. The following applies: batch B. As for the experimental part: 30 gravid ewes which were at the 135th day of gestation were distributed in two batches of 15 ewes each, account being taken of the number of fetuses assumed to be present in the uteri and of the earlier milk outputs, all the ewes being multiparous. Batch A, which receives no treatment, serves as control batch. Batch B receives 1.5 mg of hGRF (1-29) (equivalent to approximately 20 μg per kg of body weight) subcutaneously twice daily, at 8.00 hours and 14.00 hours, from day 137 of gestation up to the day of littering (which varied between day 145 and day 147, depending on the ewe). The administration of hGRF (1-29) is stopped as soon as parturition takes place. In all the animals, lambing is induced by the administration of 9 α-fluoro-11β,17α,21-trihydroxy-16α-methyl-1,4-pregnadiene-3,20-dione (proposed under the INN of dexamethasone) on the basis of 16 mg intramuscularly at 20.00 hours on day 144 of gestation. […] This discharge is the same in nature after the morning injection and after that of the afternoon. […] This is shown in FIG. 1 of the attached drawings, which represents the OGH hormone assay in terms of the time of day (mean over 15 ewes) on day 138 and on day 146 of gestation.

Data set [3] relates to multiparous gravid ewes. The experiment in a line: hGRF (1-29) on completion of two-thirds and/or at end of gestation in ewes: birth weight and growth of lambs. Format: in vivo. To be noted: for Weight of the Lambs at 30 days: control 12.12 ± 0.7 kg. As for the experimental part:
48 multiparous gravid ewes were distributed in four batches of 12 ewes each, account being taken of the earlier milk productions and of the anticipated parity (OCS--Ovine Chorionic Somatotropin--assay). The first batch forms the control batch, the ewes receiving no treatment. The other three batches receive 1.5 mg of hGRF (1-29) subcutaneously twice daily; from day 105 to day 115 of gestation for the second batch, which will be designated hereinafter as batch "GRF1"; from day 137 of gestation to littering for the third batch, which will be designated hereinafter as batch "GRF2"; and from day 105 to day 115 of gestation and from day 137 of gestation to littering for the fourth batch, which will be designated hereinafter as batch "GRF1+2". As in the above study, the administration of hGRF (1-29) is stopped as soon as parturition takes place, and lambing is induced by the administration of dexamethasone on day 145 of gestation, under the conditions described above. After parturition, the milk production of the ewes was measured twice daily, and the growth of the lambs, which received an artificial milk-feed supplied "ad libitum", was followed, the lambs receiving no growth adjuvant treatment. The analysis concerned only twin lambs, distributed as follows: At the age of 30 days, after variance analysis taking birth weight as covariable, a larger growth of all the lambs born of the mothers of batch GRF2 was observed. This is shown in FIG. 3, which is an illustration similar to that of FIG. 4, enabling the weights of the lambs born of the mothers of the four batches to be compared at the age of 30 days. Table 1 below complements this FIG. 3.

Data set [4] deals with gravid ewes. Format: in vivo. As for the experimental part:
30 gravid ewes which were at the 135th day of gestation were distributed in two batches of 15 ewes each, account being taken of the number of fetuses assumed to be present in the uteri and of the earlier milk outputs, all the ewes being multiparous. Batch A, which receives no treatment, serves as control batch. Batch B receives 1.5 mg of hGRF (1-29) (equivalent to approximately 20 μg per kg of body weight) subcutaneously twice daily, at 8.00 hours and 14.00 hours, from day 137 of gestation up to the day of littering (which varied between day 145 and day 147, depending on the ewe). The administration of hGRF (1-29) is stopped as soon as parturition takes place. In all the animals, lambing is induced by the administration of 9 α-fluoro-11β,17α,21-trihydroxy-16α-methyl-1,4-pregnadiene-3,20-dione (proposed under the INN of dexamethasone) on the basis of 16 mg intramuscularly at 20.00 hours on day 144 of gestation. The birth weights of the lambs born of mothers of the two batches A and B were compared.

The subject of another data set is dairy cows. To be noted: cited from earlier work; for milk production increased: milk adjusted to fat content 3.5%.
The mark [5] stands for this setting: 1.5 mg s.c. twice daily from day 137 of gestation to littering.

Entries after “also recorded” stand apart in the source; their conditions may differ. Where two headings read alike, the source gives them in different places.

Take “hGRF (1-29): form of human growth hormone releasing factor containing 29 amino acids, obtained after deletion of the C-terminal portion”: the “milk production greater than that of the control ewes” value in the data set with multiparous gravid ewes [1] (batch GRF1 (days 105 to 115 of gestation), fifth week of lactation) is “more than 23%”. Moreover, the Milk production in the data set with multiparous gravid ewes [1] (batch GRF1, week of lactation 1, FIG. 4, control 980 ± 70) is 1075 ± 50; in the data set with multiparous gravid ewes [1] (batch GRF1, week of lactation 2, FIG. 4, control 950 ± 60) it was 1090 ± 70; with multiparous gravid ewes [1] (batch GRF1, week of lactation 3, FIG. 4, control 845 ± 50), 1025 ± 60; in the data set on multiparous gravid ewes [1] (batch GRF1, week of lactation 4, FIG. 4, control 760 ± 45), 920 ± 60; with multiparous gravid ewes [1] (batch GRF1, week of lactation 5, FIG. 4, control 720 ± 50), 880 ± 50; in the data set on multiparous gravid ewes [1] (batch GRF2, week of lactation 1, FIG. 5, control 1020 ± 50), 1050 ± 60. For the same molecule, the Milk production amounted to 1010 ± 50 in the data set on multiparous gravid ewes [1] (batch GRF2, week of lactation 2, FIG. 5, control 1025 ± 60); 855 ± 50 with multiparous gravid ewes [1] (batch GRF2, week of lactation 3, FIG. 5, control 975 ± 50); 840 ± 40 in the data set with multiparous gravid ewes [1] (batch GRF2, week of lactation 4, FIG. 5, control 925 ± 50); 745 ± 60 in the data set on multiparous gravid ewes [1] (batch GRF2, week of lactation 5, FIG. 5, control 860 ± 50). For the same molecule, the “discharge of growth hormone (GH)” value in the data set on gravid ewes [2] (setting [5]) is recorded as “of large magnitude”. Besides, in the data set on gravid ewes [2] (setting [5]), the “duration of the discharge of growth hormone after the subcutaneous injection” value is on record as “approximately 5 hours”. Besides, the “GH response, day 146 versus day 138 of gestation” value in the data set on gravid ewes [2] (mean over 15 ewes, FIG. 1) is on record as “magnified as the term of the pregnancy is approached”. The “Weight of the Lambs at 30 days” value in the data set with multiparous gravid ewes [3] (batch GRF1+2: day 105 to 115 and day 137 to littering, 10 lambs) is given as 13 ± 0.66 kg; with multiparous gravid ewes [3] (batch GRF1: day 105 to 115 of gestation, 14 lambs) it was 13.6 ± 0.5 kg; with multiparous gravid ewes [3] (batch GRF2: day 137 to littering, 12 lambs) it was 14.73 ± 0.53 kg. For the same molecule, the “birth weight of the lambs versus control” value in the data set on multiparous gravid ewes [3] (batch GRF1+2: day 105 to 115 and day 137 to littering, twin lambs n=12) is given as “substantially similar”; in the data set with multiparous gravid ewes [3] (batch GRF1: day 105 to day 115 of gestation, twin lambs n=16) it was “substantially similar; also recorded: of the same order”. The “mean birth weight of the lambs” value in the data set on multiparous gravid ewes [3] (batch GRF2: day 137 of gestation to littering, twin lambs n=12, control 2.91 kg) was determined as 3.54 kg. Moreover, the “excess of lamb growth at 30 days over lambs of control mothers” value with multiparous gravid ewes [3] (ewes treated between days 105 and 115 of gestation (GRF1)) is around 11%. For the same molecule, in the data set on multiparous gravid ewes [3] (mothers treated between days 137 and 147 of gestation (GRF2), corrected for birth weight), the “excess of lamb weight at 30 days over the controls” value amounted to 21%. In addition, the “birth weight of the lambs born of treated mothers” value in the data set on gravid ewes [4] (batch B, n=20, 1.5 mg s.c. twice daily day 137 to littering, control batch A 3.61±0.14 kg) was determined as 4.17 ± 0.13 kg. Besides, in the data set on gravid ewes [4] (in vivo), the “effect on dates of the lambing (parturition)” value is given as “not modifying the dates of the lambing”.

B1: bGH: bovine growth hormone obtained by genetic recombination (protein, UniProt P01246 27-217, looked up)
Somatotropin: AFPAMSLSGLFANAVLRAQHLHQLAADTFKEFERTYIPEGQRYSIQNTQVAFCFSETIPAPTGKNEAQQKSDLELLRISLLLIQSWLGPLQFLSRVFTNSLVFGTSDRVYEKLKDLEEGILALMRELEDGTPRAGQILKQTYDKFDTNMRSDDALLKNYGLLSCFRKDLHKTETYLRVMKCRRFGEASCAF
In the case of B1, the milk production increased in the data set on dairy cows (12.5 mg bGH per day) is 16%; with dairy cows (25 mg bGH per day) it was 19%; in the data set on dairy cows (50 mg bGH per day), 22%. In addition, the “nutritional efficiency (kg milk with 3.5% fat per kg dry matter ingested) increased” value in the data set on dairy cows (12.5 mg bGH/day for a long period) was 13.8%; in the data set on dairy cows (25 mg bGH/day for a long period), 16.8%; in the data set on dairy cows (50 mg bGH/day for a long period) it was 15.3%.
